Laboratory results published in patent US9487502B2, “Chemical compounds” (Syngenta Limited, priority 2013, dated 2016).

What was measured:
Format in all cases: in vivo
Set-up in all cases: key: 5=total damage to plant; 0=no damage to plant
Zea mays [1] = assay: Pre-emergence herbicidal activity, ZEAMX; settings: 1000 g/Ha, sprayed pre-emergence, evaluated after 13 days, scale 0-5
Method: (§1) Seeds of a variety of test species were sown in standard soil in pots. After cultivation for one day (pre-emergence) under controlled conditions in a glasshouse (at 24/16° C., day/night; 14 hours light; 65% humidity), the plants were sprayed with an aqueous spray solution derived from the formulation of the technical active ingredient in acetone/water (50:50) solution containing 0.5% Tween 20 (polyoxyethelyene sorbitan monolaurate, CAS RN 9005-64-5). The test plants were then grown in a glasshouse under controlled conditions (at 24/16° C., day/night; 14 hours light; 65% humidity) and watered twice daily. After 13 days, the test was evaluated (5=total damage to plant; 0=no damage to plant).

Alopecurus myosuroides [2] = assay: Post-emergence herbicidal activity, ALOMY; settings: 1000 g/Ha, sprayed post-emergence (8 days cultivation), evaluated after 13 days, scale 0-5
Method: (§2) Seeds of a variety of test species were sown in standard soil in pots. After 8 days cultivation (post-emergence) under controlled conditions in a glasshouse (at 24/16° C., day/night; 14 hours light; 65% humidity), the plants were sprayed with an aqueous spray solution derived from the formulation of the technical active ingredient in acetone/water (50:50) solution containing 0.5% Tween 20 (polyoxyethelyene sorbitan monolaurate, CAS RN 9005-64-5). The test plants were then grown in a glasshouse under controlled conditions (at 24/16° C., day/night; 14 hours light; 65% humidity) and watered twice daily. After 13 days, the test was evaluated (5=total damage to plant; 0=no damage to plant).

Setaria faberi [3] = assay: Pre-emergence herbicidal activity, SETFA; settings: 1000 g/Ha, sprayed pre-emergence, evaluated after 13 days, scale 0-5
Method: as §1

Setaria faberi [4] = assay: Post-emergence herbicidal activity, SETFA; settings: 1000 g/Ha, sprayed post-emergence (8 days cultivation), evaluated after 13 days, scale 0-5
Method: as §2

Amaranthus retroflexus [5] = assay: Pre-emergence herbicidal activity, AMARE; settings: 1000 g/Ha, sprayed pre-emergence, evaluated after 13 days, scale 0-5
Method: as §1

Abutilon theophrasti [6] = assay: Pre-emergence herbicidal activity, ABUTH; settings: 1000 g/Ha, sprayed pre-emergence, evaluated after 13 days, scale 0-5
Method: as §1

Alopecurus myosuroides [7] = assay: Pre-emergence herbicidal activity, ALOMY; settings: 1000 g/Ha, sprayed pre-emergence, evaluated after 13 days, scale 0-5
Method: as §1

Abutilon theophrasti [8] = assay: Post-emergence herbicidal activity, ABUTH; settings: 1000 g/Ha, sprayed post-emergence (8 days cultivation), evaluated after 13 days, scale 0-5
Method: as §2

Amaranthus retroflexus [9] = assay: Post-emergence herbicidal activity, AMARE; settings: 1000 g/Ha, sprayed post-emergence (8 days cultivation), evaluated after 13 days, scale 0-5
Method: as §2

Echinochloa crus-galli [10] = assay: Post-emergence herbicidal activity, ECHCG; settings: 1000 g/Ha, sprayed post-emergence (8 days cultivation), evaluated after 13 days, scale 0-5
Method: as §2

Zea mays [11] = assay: Post-emergence herbicidal activity, ZEAMX; settings: 1000 g/Ha, sprayed post-emergence (8 days cultivation), evaluated after 13 days, scale 0-5
Method: as §2

Echinochloa crus-galli [12] = assay: Pre-emergence herbicidal activity, ECHCG; settings: 1000 g/Ha, sprayed pre-emergence, evaluated after 13 days, scale 0-5
Method: as §1

Compound | ZEAMX damage score, application pre-emergence (Zea mays [1]) | ALOMY damage score, application post-emergence (Alopecurus myosuroides [2]) | SETFA damage score, application pre-emergence (Setaria faberi [3]) | SETFA damage score, application post-emergence (Setaria faberi [4]) | AMARE damage score, application pre-emergence (Amaranthus retroflexus [5]) | ABUTH damage score, application pre-emergence (Abutilon theophrasti [6]) | ALOMY damage score, application pre-emergence (Alopecurus myosuroides [7]) | ABUTH damage score, application post-emergence (Abutilon theophrasti [8]) | AMARE damage score, application post-emergence (Amaranthus retroflexus [9]) | ECHCG damage score, application post-emergence (Echinochloa crus-galli [10]) | ZEAMX damage score, application post-emergence (Zea mays [11]) | ECHCG damage score, application pre-emergence (Echinochloa crus-galli [12])
C=CCC1C(O)N(c2cc(C(C)(C)C)ncn2)C(=O)N1C (single isomer, unassigned) [Example A33] | 3 | 5 | 4 | 5 | 5 | 5 | 4 | 5 | 5 | 5 | 3 | 5
CN1CC(O)N(c2cc(C(C)(C)C)ncn2)C1=O (stereo not shown) [Example A1, 3-(6-tert-butylpyrimidin-4-yl)-4-hydroxy-1-methyl-imidazolidin-2-one] | 4 | 5 | 5 | 5 | 5 | 5 | 4 | 5 | 5 | 5 | 5 | 5
CN1CC(O)N(c2cc(C(C)(C)C#N)ncn2)C1=O (stereo not shown) [Example A2] | 3 | 5 | 5 | 5 | 5 | 4 | 4 | 5 | 5 | 5 | 3 | 4
CC1C(O)N(c2cc(C(C)(C)C)ncn2)C(=O)N1C (stereo not shown) [Example A3] | 2 | 5 | 5 | 5 | 5 | 5 | 4 | 5 | 5 | 5 | 3 | 4
CN1C(=O)N(c2cc(C(C)(C)C)ncn2)C(O)C1O (stereo not shown) [Example A4, 1-(6-tert-butylpyrimidin-4-yl)-4,5-dihydroxy-3-methyl-imidazolidin-2-one] | 0 | 4 | 2 | 4 | 5 | 4 | 2 | 4 | 5 | 2 | 1 | 2
CCOC1C(O)N(c2cc(C(C)(C)C)ncn2)C(=O)N1C (stereo not shown) [Example A5, 1-(6-tert-butylpyrimidin-4-yl)-4-ethoxy-5-hydroxy-3-methyl-imidazolidin-2-one] | 2 | 5 | 5 | 5 | 5 | 5 | 4 | 5 | 5 | 5 | 4 | 5
CON1C(=O)N(c2cc(C(C)(C)C)ncn2)C(O)C1C (stereo not shown) [Example A6, 1-(6-tert-butylpyrimidin-4-yl)-5-hydroxy-3-methoxy-4-methyl-imidazolidin-2-one] | – | 5 | 5 | 5 | 5 | – | 4 | 5 | 5 | 5 | 5 | 5
COC1C(O)N(c2cc(C(C)(C)C)ncn2)C(=O)N1OC (stereo not shown) [Example A7] | 4 | 5 | 4 | 5 | 5 | 5 | 4 | 5 | 5 | 4 | 4 | 4
CCOC1C(O)N(c2cc(C(C)(C)C)ncn2)C(=O)N1OC (stereo not shown) [Example A8] | 1 | 5 | 5 | 5 | 5 | 5 | 5 | 5 | 5 | 5 | 4 | 5
CCO[C@@H]1C(O)N(c2cc(C(C)(C)F)ncn2)C(=O)N1C (stereo partly shown) [Example A38] | 2 | – | 5 | 5 | 5 | 5 | – | 5 | 5 | 5 | 5 | 5
CN1CC(O)N(c2cc(C(F)(F)Cl)ncn2)C1=O (stereo not shown) [Example A39] | 2 | – | 5 | 5 | 5 | 5 | – | 5 | 5 | 5 | 5 | 5
CN1CC(O)N(c2cc(C(C)(C)CCl)ncn2)C1=O (stereo not shown) [Example A40] | 2 | – | 5 | 5 | 5 | 5 | – | 5 | 5 | 5 | 5 | 5
